Assay results published in PubChem BioAssay (NCI).
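Cells were grown in 96-well plates and exposed to each compound for 48 hours at five concentrations; endpoints were interpolated linearly between bracketing concentrations, or set to the highest concentration if not reached. At the TGI there is no net growth.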

Tests used:
Assay in all cases: DTP human tumour cell line panel, 48 h
786-0 renal = tested on: 786-0 renal
A549 NSCLC = tested on: A549 NSCLC
ACHN renal = tested on: ACHN renal
CCRF-CEM leukemia = tested on: CCRF-CEM leukemia
COLO 205 colon = tested on: COLO 205 colon
DLD-1 colon = tested on: DLD-1 colon
DMS 114 small cell lung = tested on: DMS 114 small cell lung
DMS 273 small cell lung = tested on: DMS 273 small cell lung
EKVX NSCLC = tested on: EKVX NSCLC
HCC-2998 colon = tested on: HCC-2998 colon
HCT-116 colon = tested on: HCT-116 colon
HCT-15 colon = tested on: HCT-15 colon
HL-60(TB) leukemia = tested on: HL-60(TB) leukemia
HOP-18 NSCLC = tested on: HOP-18 NSCLC
HOP-92 NSCLC = tested on: HOP-92 NSCLC
HT29 colon = tested on: HT29 colon
IGROV1 ovarian = tested on: IGROV1 ovarian
K-562 leukemia = tested on: K-562 leukemia
KM12 colon = tested on: KM12 colon
KM20L2 colon = tested on: KM20L2 colon
LOX IMVI melanoma = tested on: LOX IMVI melanoma
LXFL 529 NSCLC = tested on: LXFL 529 NSCLC
M14 melanoma = tested on: M14 melanoma
M19-MEL melanoma = tested on: M19-MEL melanoma
MALME-3M melanoma = tested on: MALME-3M melanoma
MOLT-4 leukemia = tested on: MOLT-4 leukemia
NCI-H226 lung = tested on: NCI-H226 lung
NCI-H23 lung = tested on: NCI-H23 lung
NCI-H460 lung = tested on: NCI-H460 lung
NCI-H522 lung = tested on: NCI-H522 lung
OVCAR-3 ovarian = tested on: OVCAR-3 ovarian
OVCAR-4 ovarian = tested on: OVCAR-4 ovarian
OVCAR-5 ovarian = tested on: OVCAR-5 ovarian
OVCAR-8 ovarian = tested on: OVCAR-8 ovarian
RPMI-8226 leukemia = tested on: RPMI-8226 leukemia
RXF 393 renal = tested on: RXF 393 renal
SF-268 CNS = tested on: SF-268 CNS
SF-295 CNS = tested on: SF-295 CNS
SF-539 CNS = tested on: SF-539 CNS
SK-MEL-2 melanoma = tested on: SK-MEL-2 melanoma
SK-MEL-28 melanoma = tested on: SK-MEL-28 melanoma
SK-MEL-5 melanoma = tested on: SK-MEL-5 melanoma
SK-OV-3 ovarian = tested on: SK-OV-3 ovarian
SN12C renal = tested on: SN12C renal
SNB-19 CNS = tested on: SNB-19 CNS
SNB-75 CNS = tested on: SNB-75 CNS
SNB-78 CNS = tested on: SNB-78 CNS
SR leukemia = tested on: SR leukemia
SW-620 colon = tested on: SW-620 colon
TK-10 renal = tested on: TK-10 renal
U251 CNS = tested on: U251 CNS
UACC-257 melanoma = tested on: UACC-257 melanoma
UACC-62 melanoma = tested on: UACC-62 melanoma
UO-31 renal = tested on: UO-31 renal
XF 498 CNS = tested on: XF 498 CNS
A498 renal = tested on: A498 renal
CAKI-1 renal = tested on: CAKI-1 renal
RXF-631 renal = tested on: RXF-631 renal

For CC(C)(O)[C@@H]1CCC(C)([C@H]2[C@@H](O)CC3(C)C4CC(OC5OC(CO)C(O)C(O)C5O)C5C(C)(C)[C@@H](OC6OCC(O)C(O)C6O)CC[C@@]56C[C@@]46CC[C@]23C)O1 (stereo not given in full), the TGI (786-0 renal) was over 100 µM, the TGI (A549 NSCLC) was over 100 µM and the TGI (ACHN renal) was over 100 µM. For the same compound, the TGI (CCRF-CEM leukemia) was over 100 µM, the TGI (COLO 205 colon) was over 100 µM and the TGI (DLD-1 colon) was over 100 µM. For the same compound, the TGI (DMS 114 small cell lung) was over 100 µM, the TGI (DMS 273 small cell lung) was over 100 µM and the TGI (EKVX NSCLC) was over 100 µM. For the same compound, the TGI (HCC-2998 colon) was over 100 µM, the TGI (HCT-116 colon) was over 100 µM and the TGI (HCT-15 colon) was over 100 µM. The TGI (HL-60(TB) leukemia) was over 100 µM, the TGI (HOP-18 NSCLC) was over 100 µM and the TGI (HOP-92 NSCLC) was over 100 µM. For the same compound, the TGI (HT29 colon) was over 100 µM, the TGI (IGROV1 ovarian) was over 100 µM and the TGI (K-562 leukemia) was over 100 µM. It also gave a TGI (KM12 colon) of over 100 µM, a TGI (KM20L2 colon) of over 100 µM and a TGI (LOX IMVI melanoma) of over 100 µM. It also gave a TGI (LXFL 529 NSCLC) of over 100 µM, a TGI (M14 melanoma) of over 100 µM and a TGI (M19-MEL melanoma) of over 100 µM. The TGI (MALME-3M melanoma) was over 100 µM, the TGI (MOLT-4 leukemia) was over 100 µM and the TGI (NCI-H226 lung) was over 100 µM. For the same compound, the TGI (NCI-H23 lung) was over 100 µM, the TGI (NCI-H460 lung) was over 100 µM and the TGI (NCI-H522 lung) was over 100 µM. The TGI (OVCAR-3 ovarian) was over 100 µM, the TGI (OVCAR-4 ovarian) was over 100 µM and the TGI (OVCAR-5 ovarian) was over 100 µM. It also gave a TGI (OVCAR-8 ovarian) of over 100 µM, a TGI (RPMI-8226 leukemia) of over 100 µM and a TGI (RXF 393 renal) of over 100 µM. The TGI (SF-268 CNS) was over 100 µM, the TGI (SF-295 CNS) was over 100 µM and the TGI (SF-539 CNS) was over 100 µM. The TGI (SK-MEL-2 melanoma) was over 100 µM, the TGI (SK-MEL-28 melanoma) was over 100 µM and the TGI (SK-MEL-5 melanoma) was over 100 µM. The TGI (SK-OV-3 ovarian) was over 100 µM, the TGI (SN12C renal) was over 100 µM and the TGI (SNB-19 CNS) was over 100 µM. For the same compound, the TGI (SNB-75 CNS) was over 100 µM, the TGI (SNB-78 CNS) was over 100 µM and the TGI (SR leukemia) was over 100 µM. The TGI (SW-620 colon) was over 100 µM, the TGI (TK-10 renal) was over 100 µM and the TGI (U251 CNS) was over 100 µM. For the same compound, the TGI (UACC-257 melanoma) was over 100 µM, the TGI (UACC-62 melanoma) was over 100 µM and the TGI (UO-31 renal) was over 100 µM. The TGI (XF 498 CNS) was over 100 µM.

With C/C=C/C=N/N(c1nnc(-c2ccccc2)c(-c2ccccc2)n1)S(=O)(=O)c1ccc(C)cc1 the TGI (786-0 renal) was 19.2 µM, the TGI (A498 renal) was 27.6 µM and the TGI (A549 NSCLC) was 28.1 µM. For the same compound, the TGI (ACHN renal) was 24.3 µM, the TGI (CAKI-1 renal) was 31.4 µM and the TGI (CCRF-CEM leukemia) was 9.21 µM. It also gave a TGI (COLO 205 colon) of 35.7 µM, a TGI (DLD-1 colon) of 32.7 µM and a TGI (DMS 114 small cell lung) of 37.6 µM. The TGI (DMS 273 small cell lung) was 29.8 µM, the TGI (EKVX NSCLC) was 31.9 µM and the TGI (HCC-2998 colon) was 31.3 µM. The TGI (HCT-116 colon) was 28 µM, the TGI (HCT-15 colon) was 18.6 µM and the TGI (HL-60(TB) leukemia) was 6.36 µM. The TGI (HOP-18 NSCLC) was 27.4 µM, the TGI (HOP-92 NSCLC) was 31.3 µM and the TGI (HT29 colon) was 24.1 µM. It also gave a TGI (IGROV1 ovarian) of 29.3 µM, a TGI (K-562 leukemia) of over 100 µM and a TGI (KM12 colon) of 22.9 µM. It also gave a TGI (KM20L2 colon) of 26.1 µM, a TGI (LOX IMVI melanoma) of 13.8 µM and a TGI (LXFL 529 NSCLC) of 19.3 µM. It also gave a TGI (M14 melanoma) of 15.8 µM, a TGI (M19-MEL melanoma) of 36.3 µM and a TGI (MALME-3M melanoma) of 22.8 µM. The TGI (MOLT-4 leukemia) was 26.6 µM, the TGI (NCI-H226 lung) was 31.2 µM and the TGI (NCI-H23 lung) was 29.7 µM. The TGI (NCI-H460 lung) was 28.3 µM, the TGI (NCI-H522 lung) was 19.4 µM and the TGI (OVCAR-3 ovarian) was 25.2 µM. For the same compound, the TGI (OVCAR-4 ovarian) was 28.2 µM, the TGI (OVCAR-5 ovarian) was 33.5 µM and the TGI (OVCAR-8 ovarian) was 20.7 µM. The TGI (RPMI-8226 leukemia) was 36.6 µM, the TGI (RXF-631 renal) was 73.2 µM and the TGI (SF-268 CNS) was 18 µM. For the same compound, the TGI (SF-295 CNS) was 22.9 µM, the TGI (SF-539 CNS) was 23.8 µM and the TGI (SK-MEL-2 melanoma) was 24.1 µM. It also gave a TGI (SK-MEL-28 melanoma) of 28.7 µM, a TGI (SK-MEL-5 melanoma) of 23.1 µM and a TGI (SK-OV-3 ovarian) of 33.8 µM. For the same compound, the TGI (SN12C renal) was 20.7 µM, the TGI (SNB-75 CNS) was 19.9 µM and the TGI (SNB-78 CNS) was 83.2 µM. The TGI (SR leukemia) was 21.1 µM, the TGI (SW-620 colon) was 14.9 µM and the TGI (TK-10 renal) was 28.2 µM. The TGI (U251 CNS) was 12.7 µM, the TGI (UACC-257 melanoma) was 20.9 µM and the TGI (UACC-62 melanoma) was 11.6 µM. The TGI (UO-31 renal) was 19.6 µM.
